One block for each molecule: values may come before it.
Experiments:
Homo sapiens [1] = species: Homo sapiens; experiment: Inhibitory concentration against C3a receptor induced chemotaxis in human eosinophils; type: functional, organism-based
[2] = molecular target: T1, C3a anaphylatoxin chemotactic receptor (Homo sapiens, UniProt Q16581); experiment: Inhibition of complement component 3a (C3a) binding to C3a receptor in human neutrophil based assay
T1 sequence (Q16581 whole entry): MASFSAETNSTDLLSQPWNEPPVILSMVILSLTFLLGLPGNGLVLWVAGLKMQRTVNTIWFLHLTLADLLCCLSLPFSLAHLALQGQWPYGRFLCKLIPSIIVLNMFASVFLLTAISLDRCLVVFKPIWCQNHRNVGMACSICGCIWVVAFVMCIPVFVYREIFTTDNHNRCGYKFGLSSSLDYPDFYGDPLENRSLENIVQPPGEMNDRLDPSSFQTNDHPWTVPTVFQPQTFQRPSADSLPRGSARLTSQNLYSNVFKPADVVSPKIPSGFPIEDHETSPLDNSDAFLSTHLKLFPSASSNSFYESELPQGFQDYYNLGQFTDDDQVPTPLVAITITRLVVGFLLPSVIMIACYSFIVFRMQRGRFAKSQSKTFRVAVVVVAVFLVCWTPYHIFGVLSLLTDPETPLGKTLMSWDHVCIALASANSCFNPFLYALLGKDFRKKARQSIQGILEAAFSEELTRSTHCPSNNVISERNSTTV

[3] = molecular target: T1, C3a anaphylatoxin chemotactic receptor; experiment: Concentration required to inhibit complement component 3a (C3a) binding to C3a receptor in human neutrophil based assay; Not active at 25 uM
Homo sapiens [4] = species: Homo sapiens; experiment: Concentration required for 50% inhibition of binding against C3a receptor induced calcium mobilization in human neutrophil; type: functional, organism-based
Rattus norvegicus [5] = experiment: Percent inhibition against C3a receptor induced wheal formation in rat at the dose of 30 mg/Kg administered intraperitoneally
Rattus norvegicus [6] = experiment: Percent inhibition against C3a receptor induced wheal formation in rat at the dose of 15 mg/Kg administered orally
Rattus norvegicus [7] = experiment: Percent inhibition against C3a receptor induced wheal formation in rat at the dose of 30 mg/Kg administered orally
Homo sapiens [8] = species: Homo sapiens; experiment: Percent inhibition against C3a receptor induced calcium mobilization in human neutrophil at the dose of 25 uM; type: functional
Homo sapiens [9] = species: Homo sapiens; experiment: Inhibitory concentration against C3a receptor induced chemotaxis in human eosinophils; Not active at 25 uM; type: functional, organism-based
Homo sapiens [10] = species: Homo sapiens; experiment: Percent inhibition against C3a receptor induced chemotaxis in human eosinophils at the dose of 25 uM; type: functional

IC50 (Homo sapiens [1]): 7.8 µM
Compound: CN(C)CCOc1ccc2c(c1)/C(=N/CCc1ccc(F)cc1)N=C2NCCc1ccc(F)cc1
IC50 [2]: 5.36 µM

Compound: Cc1ccc(CC/N=C2/CCC(NCCc3ccc(C)cc3)=N2)cc1
IC50 [3]: Not Active

IC50 (Homo sapiens [4]): 2 µM
inhibition (Rattus norvegicus [5]): 64%
inhibition (Rattus norvegicus [6]): 30%
inhibition (Rattus norvegicus [7]): 61%
Compound: Cc1ccc(C/N=C2\N=C(NCc3ccc(C)cc3)c3ccccc32)cc1
IC50 [2]: 1.7 µM

Compound: Fc1ccc(CC/N=C2\N=C(NCCc3ccc(F)cc3)c3cnccc32)cc1
IC50 [2]: 13.4 µM

Compound: N=C1N=C(NCCc2ccc(Cl)cc2)c2ccccc21
IC50 [3]: Not Active

Compound: Cc1ccc(C/N=C2\N=C(NCc3ccc(C)cc3)c3cc([N+](=O)[O-])ccc32)cc1
IC50 [3]: Not Active

Compound: Cc1ccc(CC/N=C2\N=C(NCCc3ccc(C)cc3)c3cc(Cl)c(Cl)cc32)cc1
IC50 [2]: 48 µM

IC50 (Homo sapiens [4]): 3.3 µM
inhibition (Rattus norvegicus [5]): 38%
IC50 (Homo sapiens [1]): 6.5 µM
inhibition (Rattus norvegicus [7]): 67%
Compound: Cc1ccc(CC/N=C2\N=C(NCCc3ccc(C)cc3)c3ccccc32)cc1
IC50 [2]: 6.14 µM

IC50 (Homo sapiens [1]): 6.1 µM
Compound: CCCOc1ccc2c(c1)/C(=N/CCc1ccc(F)cc1)N=C2NCCc1ccc(F)cc1
inhibition at 25 µM (Homo sapiens [8]): 79%
IC50 [2]: 5.97 µM

IC50 (Homo sapiens [4]): 8.2 µM
inhibition (Rattus norvegicus [5]): 26%
IC50 (Homo sapiens [1]): 10.2 µM
inhibition (Rattus norvegicus [7]): 63%
Compound: Clc1ccc(CC/N=C2\N=C(NCCc3ccc(Cl)cc3)c3ccccc32)cc1
IC50 [2]: 7.16 µM

Compound: Fc1ccc(CC/N=C2\N=C(NCCc3ccc(F)cc3)c3nccnc32)cc1
IC50 [3]: Not Active

Compound: CC(C)NC1=N/C(=N\CCc2ccc(Cl)cc2)c2ccccc21
IC50 [2]: 8.45 µM

Compound: CC(C/N=C1\N=C(NCC(C)c2ccc(Cl)cc2)c2ccccc21)c1ccc(Cl)cc1 (stereo unspecified)
inhibition at 25 µM (Homo sapiens [8]): 69%
IC50 [2]: 5.9 µM

IC50 (Homo sapiens [4]): 5.4 µM
inhibition (Rattus norvegicus [5]): 72%
IC50 (Homo sapiens [9]): Not Active
inhibition (Rattus norvegicus [6]): 28%
inhibition (Rattus norvegicus [7]): 55%
Compound: Clc1cccc(CC/N=C2\N=C(NCCc3cccc(Cl)c3)c3ccccc32)c1
IC50 [2]: 7.48 µM

IC50 (Homo sapiens [4]): 3.8 µM
Compound: COc1ccc2c(c1)/C(=N/CCc1ccc(C)cc1)N=C2NCCc1ccc(C)cc1
inhibition at 25 µM (Homo sapiens [10]): 37%
IC50 [2]: 12.6 µM

Compound: CC(=O)Nc1ccc2c(c1)/C(=N\Cc1ccc(C)cc1)N=C2NCc1ccc(C)cc1
IC50 [2]: 32 µM

Compound: CC(C)/N=C1\N=C(NC(C)C)c2ccccc21
IC50 [3]: Not Active

IC50 (Homo sapiens [4]): 3.1 µM
inhibition (Rattus norvegicus [5]): 73%
IC50 (Homo sapiens [1]): 6.5 µM
inhibition (Rattus norvegicus [6]): 44%
inhibition (Rattus norvegicus [7]): 72%
Compound: Fc1ccc(CC/N=C2\N=C(NCCc3ccc(F)cc3)c3ccccc32)cc1
IC50 [2]: 11.4 µM
